Measured values taken from article PMC12693182, “Synthesis and QSAR Studies of Claramine Derivatives, a New Class of Broad-Spectrum Antimicrobial Agents” (Molecules, 2025).
In brackets after ≈: the same amount, converted by molar mass.

Assays:
[1] = system: S. aureus 340 and P. aeruginosa 1051575; assay: MIC against S. aureus and P. aeruginosa strains (Figure 6); format: cell-based; details: range over both strains, C-24 methyl ester series
Experimental: Antimicrobial activity of the compounds was studied by determination of minimal inhibitory concentrations (MIC) according to the NCCLS guidelines M7-A2 using the microbroth dilution methods. The bacteria strains were grown on trypticase soy agar (Becton Dickinson) at 37 °C for 24 h. Inocula were prepared in TCE (tryptone 0.1%, […], wt/vol) by ajusting the turbidity at 623 nm to obtain 1–3 10^5 CFU/mL.
Antimicrobial activities of the compounds were determined by using a broth microdilution method performed in sterile 96-well microplates. All compounds were solubilized in water at a concentration of 10 mM and were transferred to each microplate well in order to obtain a two-fold serial dilution in 100 µL of broth and 100 µL of inoculum containing 2–6 10^5 CFU of each bacterium were added to each well. Some wells were reserved for positive controls and inoculum viability.

[2] = system: Chinese hamster Ovary cells (CHO-K1); assay: Cytotoxicity assay (WST-1 / Neutral Red); format: cell-based; details: Cricetulus griseus, 24 h, 24-h incubation
Experimental: The cytotoxic activities of compounds were assessed on Chinese hamster Ovary cells (CHO-K1) provided from ATCC-LGC Standards Sarl (Molsheim, France). Cells were maintained in Mc Coy’s 5A (CHO) medium supplemented with 10% bovine calf serum, 2 mM glutamine, and 100 U mL^−1/10 µg mL^−1 penicillin/streptomycin mixtures. For the cytotoxicity experiments, they were seeded in 96-well plates and incubated at 37 °C in humidified atmosphere containing 5% CO2 overnight, then concentrations of compounds were incorporated in triplicate cultures. After a 24-h incubation period at 37 °C, cells were submitted to three successive washes in phosphate buffer saline (PBS) and cell viability was evaluated by two different vital dyes: • i. A first set of cell cultures was incubated in PBS containing 10% WST-1 for 30 min at 37 °C, 5% CO2. Cell viability was evaluated by the assessment of WST-1 absorbance at 450 nm in a microplate spectrophotometer. • ii. A second set of cell cultures was placed into Neutral Red medium (50 μg mL^−1 Neutral Red in complete medium) and incubated for 3 h at 37 °C, 5% CO2. Then the Neutral Red medium was removed and the distaining solution (50% ethanol, 1% acetic acid, 49% distilled water; 50 µL per well) was added into the wells. The plates were shaken for 15–20 min at room temperature in the dark. Cell viability was evaluated by the assessment of absorbance at 540 nm in a microplate spectrophotometer.
Results were expressed as percentages of cell viability about the control (culture medium-only), which corresponded to 100% cell viability. Dose-response curves were calculated by non-linear regression analysis with TableCurve 2D software (V 5.0.1) (Systat Software Inc., San Jose, CA, USA). The Inhibitory Concentration 50% (IC50) was defined as the concentration of compounds that induced a 50% decrease of viable cells.

Row | SMILES | MIC [1] [µg/mL] | IC50 [2] [µg/mL]
1 | COC(=O)CCC(C)C1CCC2C3CCC4CC(NCCCNCCCCNCCCN)CCC4(C)C3CC(O)C12C (stereo not drawn) [Claramine A05] | 2 to 4 (≈ 3.38 to 6.77 µM) | 8 (≈ 13.5 µM)
2 | COC(=O)CCC(C)C1CCC2C3CCC4CC(NCCCCCN)CCC4(C)C3CC(O)C12C (stereo not drawn) [Claramine A12] | 6 to 50 (≈ 12.2 to 102 µM) | 
